Data from paper PMC9574867, “Discovery and Characterization of Synthesized and FDA-Approved Inhibitors of Clostridial and Bacillary Collagenases” (Journal of Medicinal Chemistry, 2022).
Converted amounts (≈) assume the structure as drawn. Where two headings read alike, the source gives them in different places.

Columns and labels:
ColQ1-CU = ColQ1-CU (Bacillus cereus, UniProt B9J3S4); assay: biochemical; parameters: species or system B. cereus strain Q1
ColA-CU = ColA-CU (Bacillus cereus, UniProt Q81BJ6); assay: biochemical; type: biochemical, B. cereus strain ATCC14579; details: 100 μM; read-out: Percent inhibition of ColA-CU
MMP-1 = target: T1, MMP-1 (Homo sapiens, UniProt P03956); assay: MMP inhibition assay, MMP-1; type: biochemical
T1 construct: catalytic domains of three human MMPs; purchased Sigma-Aldrich
T1 sequence (P03956 98-276 limits assumed): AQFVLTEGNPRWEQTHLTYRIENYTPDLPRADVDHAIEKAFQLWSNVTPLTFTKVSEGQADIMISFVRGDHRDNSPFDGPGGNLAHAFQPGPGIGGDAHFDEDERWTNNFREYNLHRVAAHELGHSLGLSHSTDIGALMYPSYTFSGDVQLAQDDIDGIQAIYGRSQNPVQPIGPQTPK
Method in brief: (§1)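 Catalytic domains of human MMPs were tested with a commercial fluorescence MMP inhibition kit following the manufacturer's protocol. Compounds were assayed at 100 μM.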

MMP-2 = target: T2, MMP-2 (Homo sapiens, UniProt P08253); assay: MMP inhibition assay, MMP-2; type: biochemical
T2 construct: catalytic domains of three human MMPs; purchased Sigma-Aldrich
Method in brief: as §1

MMP-3 = target: T3, MMP-3 (Homo sapiens, UniProt P08254); assay: MMP inhibition assay, MMP-3; type: biochemical
T3 construct: catalytic domains of three human MMPs; purchased Sigma-Aldrich
Method in brief: as §1

HDAC-3 = HDAC-3 (Homo sapiens, UniProt O15379); assay: Human off-target inhibition, HDAC-3; type: biochemical
HDAC-8 = target: T4, HDAC-8 (Homo sapiens, UniProt Q9BY41); assay: Human off-target inhibition, HDAC-8; type: biochemical
T4 sequence (Q9BY41 1-377): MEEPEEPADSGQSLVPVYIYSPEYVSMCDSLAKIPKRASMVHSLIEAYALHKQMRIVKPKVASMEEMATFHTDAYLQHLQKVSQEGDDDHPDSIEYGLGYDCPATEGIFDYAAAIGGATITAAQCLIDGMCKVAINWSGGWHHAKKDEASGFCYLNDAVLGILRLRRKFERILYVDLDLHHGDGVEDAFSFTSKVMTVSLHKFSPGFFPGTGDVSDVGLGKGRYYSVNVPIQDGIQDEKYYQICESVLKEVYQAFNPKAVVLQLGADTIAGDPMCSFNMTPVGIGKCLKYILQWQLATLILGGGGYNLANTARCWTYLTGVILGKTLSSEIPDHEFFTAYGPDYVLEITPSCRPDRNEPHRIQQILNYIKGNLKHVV

TACE (ADAM-17) = TACE (ADAM-17) (Homo sapiens, UniProt P78536); assay: Human off-target inhibition, TACE; type: biochemical
B. cereus AH187 = assay: B. cereus growth inhibition assay; type: cell-based; details: Bacillus cereus, AH187; BHI medium, 37 °C, 48 h, 200–3 μM; read-out: MIC50 (µM) AH187
ColQ1-FL = ColQ1-FL (Bacillus cereus, UniProt B9J3S4); type: biochemical; details: SDS-PAGE
[1] = system: B. cereus AH187 infection; type: in vivo, Galleria mellonella; details: for Survival of infected larvae vs control without inhibitor: 37 °C, 3 days
in vitro [2] = details: human, HepG2 cells (hepatocellular carcinoma)
in vitro [3] = details: human, HEK293 cells (embryonal kidney)
in vitro [4] = details: human, NHDF cells (normal human dermal fibroblasts)

Chain of ColQ1-CU (B9J3S4 94-765 limits assumed): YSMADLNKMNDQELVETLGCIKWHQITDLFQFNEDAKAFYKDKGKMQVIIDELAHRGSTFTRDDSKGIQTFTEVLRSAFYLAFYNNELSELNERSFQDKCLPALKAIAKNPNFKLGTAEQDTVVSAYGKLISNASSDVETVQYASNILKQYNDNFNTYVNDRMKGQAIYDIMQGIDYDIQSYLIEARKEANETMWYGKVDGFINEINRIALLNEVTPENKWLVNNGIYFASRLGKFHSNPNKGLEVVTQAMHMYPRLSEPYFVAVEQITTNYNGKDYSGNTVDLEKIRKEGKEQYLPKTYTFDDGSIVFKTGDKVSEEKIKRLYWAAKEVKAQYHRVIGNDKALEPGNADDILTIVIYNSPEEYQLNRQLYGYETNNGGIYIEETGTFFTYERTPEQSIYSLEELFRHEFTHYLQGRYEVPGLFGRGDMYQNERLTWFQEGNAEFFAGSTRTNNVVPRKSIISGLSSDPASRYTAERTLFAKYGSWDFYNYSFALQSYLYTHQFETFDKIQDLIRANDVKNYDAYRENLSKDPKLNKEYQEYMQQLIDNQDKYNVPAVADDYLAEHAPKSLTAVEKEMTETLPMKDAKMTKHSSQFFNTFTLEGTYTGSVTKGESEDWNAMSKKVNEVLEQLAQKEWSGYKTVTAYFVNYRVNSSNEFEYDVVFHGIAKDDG
T2 sequence (P08253 110-444 limits assumed): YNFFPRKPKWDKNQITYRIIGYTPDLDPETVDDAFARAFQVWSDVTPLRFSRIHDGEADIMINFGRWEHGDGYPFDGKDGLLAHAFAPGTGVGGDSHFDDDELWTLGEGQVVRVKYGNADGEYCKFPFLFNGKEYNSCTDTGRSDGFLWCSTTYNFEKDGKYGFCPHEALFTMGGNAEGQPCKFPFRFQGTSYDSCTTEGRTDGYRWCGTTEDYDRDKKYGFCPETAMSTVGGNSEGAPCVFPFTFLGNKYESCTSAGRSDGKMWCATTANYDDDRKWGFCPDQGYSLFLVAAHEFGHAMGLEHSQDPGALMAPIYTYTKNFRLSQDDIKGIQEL
Chain of ColA-CU (Q81BJ6 93-764): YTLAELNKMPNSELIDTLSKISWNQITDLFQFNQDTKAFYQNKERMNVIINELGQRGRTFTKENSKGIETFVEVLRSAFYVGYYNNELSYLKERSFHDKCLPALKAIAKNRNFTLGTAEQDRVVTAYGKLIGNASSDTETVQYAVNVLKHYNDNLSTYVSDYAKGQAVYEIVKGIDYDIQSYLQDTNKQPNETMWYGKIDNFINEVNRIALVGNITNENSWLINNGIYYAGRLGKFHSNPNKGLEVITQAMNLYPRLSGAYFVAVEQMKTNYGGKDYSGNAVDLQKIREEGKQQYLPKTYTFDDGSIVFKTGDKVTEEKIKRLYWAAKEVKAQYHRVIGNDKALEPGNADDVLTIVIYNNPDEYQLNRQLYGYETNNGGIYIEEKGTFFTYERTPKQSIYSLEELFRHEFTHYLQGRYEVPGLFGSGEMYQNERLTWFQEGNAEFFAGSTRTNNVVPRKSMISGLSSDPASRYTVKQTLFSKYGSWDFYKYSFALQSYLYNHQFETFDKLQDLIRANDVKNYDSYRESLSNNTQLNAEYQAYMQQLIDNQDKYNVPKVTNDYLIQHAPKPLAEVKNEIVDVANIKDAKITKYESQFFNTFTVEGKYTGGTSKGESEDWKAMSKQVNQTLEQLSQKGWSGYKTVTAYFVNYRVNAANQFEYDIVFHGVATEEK
Chain of TACE (ADAM-17) (P78536 215-824): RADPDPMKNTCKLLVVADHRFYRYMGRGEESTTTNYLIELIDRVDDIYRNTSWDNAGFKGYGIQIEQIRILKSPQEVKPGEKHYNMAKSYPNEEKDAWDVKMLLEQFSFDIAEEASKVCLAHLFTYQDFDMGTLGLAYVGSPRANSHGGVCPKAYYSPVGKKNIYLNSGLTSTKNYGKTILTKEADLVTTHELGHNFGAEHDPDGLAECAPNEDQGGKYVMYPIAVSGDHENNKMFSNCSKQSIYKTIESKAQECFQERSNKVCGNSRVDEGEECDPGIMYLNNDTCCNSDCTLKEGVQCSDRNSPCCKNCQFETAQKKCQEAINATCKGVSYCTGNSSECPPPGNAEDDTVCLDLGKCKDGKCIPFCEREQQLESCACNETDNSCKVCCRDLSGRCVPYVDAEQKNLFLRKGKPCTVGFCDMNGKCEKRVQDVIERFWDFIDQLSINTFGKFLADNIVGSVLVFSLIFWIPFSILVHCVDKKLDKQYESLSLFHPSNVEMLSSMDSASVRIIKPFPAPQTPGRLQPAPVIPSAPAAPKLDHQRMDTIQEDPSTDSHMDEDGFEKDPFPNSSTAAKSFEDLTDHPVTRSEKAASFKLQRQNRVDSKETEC
Chain of HDAC-3 (O15379 whole entry): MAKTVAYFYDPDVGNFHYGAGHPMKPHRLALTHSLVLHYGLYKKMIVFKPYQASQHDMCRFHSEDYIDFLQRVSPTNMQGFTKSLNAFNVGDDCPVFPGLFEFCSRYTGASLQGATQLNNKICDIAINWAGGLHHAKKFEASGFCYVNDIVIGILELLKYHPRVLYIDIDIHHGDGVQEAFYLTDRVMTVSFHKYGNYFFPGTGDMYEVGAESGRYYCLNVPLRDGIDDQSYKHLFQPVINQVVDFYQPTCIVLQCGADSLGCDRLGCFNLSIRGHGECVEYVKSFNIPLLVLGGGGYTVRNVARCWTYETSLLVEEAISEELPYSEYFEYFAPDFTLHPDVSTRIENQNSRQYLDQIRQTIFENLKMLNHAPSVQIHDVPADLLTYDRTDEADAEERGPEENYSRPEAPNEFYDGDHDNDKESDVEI
Chain of HDAC-3 (Q9Y618 395-489 partner limits assumed): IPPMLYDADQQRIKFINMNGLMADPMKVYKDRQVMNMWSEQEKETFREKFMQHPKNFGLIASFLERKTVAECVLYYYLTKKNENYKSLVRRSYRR
Chain of ColQ1-FL (B9J3S4 94-965 limits assumed): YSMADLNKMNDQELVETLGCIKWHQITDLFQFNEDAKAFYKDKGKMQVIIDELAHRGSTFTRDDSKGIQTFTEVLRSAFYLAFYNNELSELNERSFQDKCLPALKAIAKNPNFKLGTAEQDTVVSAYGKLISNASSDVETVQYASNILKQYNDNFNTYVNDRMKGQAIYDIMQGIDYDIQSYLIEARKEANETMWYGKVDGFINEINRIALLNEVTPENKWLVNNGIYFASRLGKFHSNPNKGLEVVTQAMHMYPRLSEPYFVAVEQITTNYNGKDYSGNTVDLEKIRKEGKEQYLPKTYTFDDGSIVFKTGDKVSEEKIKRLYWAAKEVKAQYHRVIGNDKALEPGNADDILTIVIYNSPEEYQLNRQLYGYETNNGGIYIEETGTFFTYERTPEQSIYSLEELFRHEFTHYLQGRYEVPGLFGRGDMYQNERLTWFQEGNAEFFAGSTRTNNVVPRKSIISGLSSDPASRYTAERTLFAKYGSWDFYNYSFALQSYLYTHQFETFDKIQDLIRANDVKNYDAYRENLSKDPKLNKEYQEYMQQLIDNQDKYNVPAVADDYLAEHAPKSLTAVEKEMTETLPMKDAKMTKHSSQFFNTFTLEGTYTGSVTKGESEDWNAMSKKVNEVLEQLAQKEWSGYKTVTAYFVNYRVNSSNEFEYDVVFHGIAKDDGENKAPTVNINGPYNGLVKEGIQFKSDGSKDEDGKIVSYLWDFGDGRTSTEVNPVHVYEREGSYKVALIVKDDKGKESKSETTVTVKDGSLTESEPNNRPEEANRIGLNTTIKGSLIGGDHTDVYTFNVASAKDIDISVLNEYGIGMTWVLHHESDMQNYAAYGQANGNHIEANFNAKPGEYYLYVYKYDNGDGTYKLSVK
T3 sequence (P08254 100-272 limits assumed): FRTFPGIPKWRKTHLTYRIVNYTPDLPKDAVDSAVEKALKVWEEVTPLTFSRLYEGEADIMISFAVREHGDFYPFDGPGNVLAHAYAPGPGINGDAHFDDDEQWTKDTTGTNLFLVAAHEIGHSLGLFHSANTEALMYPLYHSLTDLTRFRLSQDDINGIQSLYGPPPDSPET

Compound | IC50 (ColQ1-CU) [µM] | inhibition at 100 µM (ColQ1-CU; read-out: % Inhibition (ColQ1-CU) Mean) [%] | inhibition at 100 µM (ColA-CU) [%] | IC50 (MMP-1) [µM] | IC50 (MMP-2) [µM] | IC50 (MMP-3) [µM] | IC50 (HDAC-3) [µM] | IC50 (HDAC-8) [µM] | IC50 (TACE (ADAM-17)) [µM] | MIC50 (B. cereus AH187) [µM] | Concentration above which Col I chains were maintained (ColQ1-FL; 1 mg/mL Col I, 50 ng ColQ1-FL) | Increase in survival of infected larvae ([1]; 50 μM) [%] | Increase in survival of infected larvae ([1]; 200 μM) | Survival of infected larvae vs control without inhibitor [1] | IC50 (in vitro [2]) [µM] | IC50 (in vitro [3]) [µM] | IC50 (in vitro [4]) [µM] | Protection of Col I chains from cleavage by ColQ1-FL (ColQ1-FL; 12.5–1.5 μM tested) | Effect on survival of infected larvae ([1]; 25 μM) | Increase in survival of infected larvae ([1]; 100 μM)
O=P(O)(O)c1nc2cc(Cl)c(Cl)cc2nc1P(=O)(O)O [Compound 13, (6,7-Dichloroquinoxaline-2,3-diyl)bis(phosphonic acid)] | 5.2 ± 0.4 | 98 ± 1 | 71 ± 4 | 53 ± 3 | 79 ± 2 | 33 ± 11 | > 100 | > 100 | > 100 | 200 (≈ 71.8 µg/mL) | above 3 μM | 5 | about 35% | ameliorated the survival of the larvae in a dose-dependent manner | > 100 | 100 | > 200 | – | – | –
O=C(Nc1ccc(Cl)c(Cl)c1)c1ccc2nc(P(=O)(O)O)c(P(=O)(O)O)nc2c1 [Compound 14, (6-((3,4-Dichlorophenyl)carbamoyl)quinoxaline-2,3-diyl)bis(phosphonic acid)] | 16 ± 1 | – | 82 ± 2 | > 100 | > 100 | > 100 | > 100 | > 100 | > 100 | 100 (≈ 47.8 µg/mL) | – | – | – | ameliorated the survival of the larvae in a dose-dependent manner | > 100 | > 100 | > 100 | inhibited the collagenase activity at all concentrations tested | reduced effect | around 50%
